≈ marks a conversion by molar mass, not a printed value.
Legend:
SK-OV-3 [1] = experiment: Compound was tested for in vitro cytotoxicity against SK-OV-3 (human ovary carcinoma) cell line; type: functional, cell-based; settings: SK-OV-3, Female gonad
Vero = experiment: Compound was tested for in vitro cytotoxicity against VERO (African green monkey kidney) cell line; type: functional, cell-based; settings: Chlorocebus sabaeus
KB = experiment: Compound was tested for in vitro cytotoxicity against KB (human epidermoid carcinoma) cell line; type: functional, cell-based
P388 [2] = experiment: Compound was tested for in vitro cytotoxicity against P388 (murine lymphocytic leukemia) cell line; type: functional, cell-based; settings: Mus musculus
SK-OV-3 [3] = experiment: Compound was tested for in vitro cytotoxicity against SK-OV-3 (human ovary carcinoma) cell line;No activity; type: functional, cell-based, Female gonad
P388 [4] = experiment: Compound was tested for in vitro cytotoxicity against P388 (murine lymphocytic leukemia) cell line;No activity; type: functional, cell-based, Mus musculus
SK-OV-3 [5] = experiment: Compound was tested for in vitro cytotoxicity against SK-OV-3 (human ovary carcinoma) cell line; No activity; type: functional, cell-based, Female gonad

Structure (SMILES): CC[C@H]1O[C@@H]2O[C@@]3(C)CC[C@H]4[C@H](C)CC[C@@H]([C@H]1C)[C@@]24OO3
- IC50 (SK-OV-3 [1]): 33 µg/mL (≈ 111 µM)
- IC50 (Vero): 30 µg/mL (≈ 101 µM)
- IC50 (KB): 20 µg/mL (≈ 67.5 µM)
- IC50 (P388 [2]): 5.5 µg/mL (≈ 18.6 µM)

Structure (SMILES): C[C@@H]1CCC2[C@@H](C)CCO[C@@H]3OC4(C)CCC1C23OO4 (single isomer, unassigned)
- IC50 (Vero): 30 µg/mL (≈ 106 µM)
- IC50 (KB): 22 µg/mL (≈ 77.9 µM)
- IC50 (SK-OV-3 [3]): Not Active
- IC50 (P388 [2]): 8 µg/mL (≈ 28.3 µM)

Structure (SMILES): CCCC[C@H]1O[C@@H]2OC3(C)CC[C@H]4[C@H](C)CC[C@@H]([C@H]1C)[C@@]24OO3 (single isomer, unassigned)
- IC50 (SK-OV-3 [1]): 40 µg/mL (≈ 123 µM)
- IC50 (Vero): 15 µg/mL (≈ 46.2 µM)
- IC50 (KB): 4.5 µg/mL (≈ 13.9 µM)
- IC50 (P388 [2]): 40 µg/mL (≈ 123 µM)

Structure (SMILES): C[C@H]1[C@@H](CCCC(=O)O)O[C@@H]2OC3(C)CCC4[C@H](C)CC[C@@H]1[C@]42OO3 (single isomer, unassigned)
- IC50 (Vero): 30 µg/mL (≈ 84.6 µM)
- IC50 (KB): 32 µg/mL (≈ 90.3 µM)
- IC50 (SK-OV-3 [3]): Not Active
- IC50 (P388 [4]): Not Active

Structure (SMILES): CCO[C@H]1O[C@@H]2OC3(C)CCC4[C@H](C)CC[C@@H]([C@H]1C)[C@]42OO3 (single isomer, unassigned)
- IC50 (Vero): 28 µg/mL (≈ 89.6 µM)
- IC50 (KB): 15 µg/mL (≈ 48 µM)
- IC50 (SK-OV-3 [3]): Not Active
- IC50 (P388 [4]): Not Active

Structure (SMILES): C[C@H]1[C@@H](Cc2ccccc2)O[C@@H]2OC3(C)CCC4[C@H](C)CC[C@@H]1[C@]42OO3 (single isomer, unassigned)
- IC50 (SK-OV-3 [1]): 32 µg/mL (≈ 89.3 µM)
- IC50 (Vero): 15 µg/mL (≈ 41.8 µM)
- IC50 (KB): 13 µg/mL (≈ 36.3 µM)
- IC50 (P388 [4]): Not Active

Structure (SMILES): CCN(CC)Cc1ccc(C(=O)O[C@@H]2O[C@@H]3OC4(C)CCC5[C@H](C)CC[C@@H]([C@H]2C)[C@]53OO4)cc1 (single isomer, unassigned)
- IC50 (Vero): 15 µg/mL (≈ 31.7 µM)
- IC50 (KB): 3 µg/mL (≈ 6.33 µM)
- IC50 (SK-OV-3 [3]): Not Active
- IC50 (P388 [4]): Not Active

Structure (SMILES): C[C@@H]1CC[C@H]2[C@@H](C)CO[C@@H]3OC4(C)CC[C@@H]1[C@]32OO4 (single isomer, unassigned) [DEOXOARTEMISININ]
- IC50 (SK-OV-3 [1]): 40 µg/mL (≈ 149 µM)
- IC50 (Vero): 30 µg/mL (≈ 112 µM)
- IC50 (KB): 24 µg/mL (≈ 89.4 µM)
- IC50 (P388 [4]): Not Active

Structure (SMILES): C[C@@H]1CC[C@H]2[C@@H](C)C(=O)O[C@@H]3O[C@@]4(C)CC[C@@H]1[C@]32OO4 [ARTEMISININ]
- IC50 (Vero): 31 µg/mL (≈ 110 µM)
- IC50 (SK-OV-3 [5]): Not Active
- IC50 (KB): 16 µg/mL (≈ 56.7 µM)
- IC50 (P388 [2]): 28 µg/mL (≈ 99.2 µM)

From ChEMBL document CHEMBL1129913, “Synthesis and cytotoxicity of novel artemisinin analogs” (Bioorg Med Chem Lett, 1997)
